In US20140073628A1, “BENZOXAZEPINES ASN INHIBITORS OF P13K/M TOR AND METHODS OF THEIR USE AND MANUFACTURE” (priority 2010, published 2014):

target: mTOR/GbL/Raptor (mTORC1) (Homo sapiens, UniProt P42345); assay: mTOR/GbL/Raptor (mTORC1) ELISA assay; assay type: biochemical; conditions: phosphorylation of 4E-BP1; 0.2 nM mTORC1, 10 μM ATP, 50 nM NHis-tagged 4E-BP1
Procedure: mTOR/GbL/Raptor (mTORC1) ELISA Assay
The measurement of mTORC1 enzyme activity was performed in an ELISA assay format following the phosphorylation of 4E-BP1 protein. All experiments were performed in the 384-well format. Generally, 0.5 μL DMSO containing varying concentrations of the test compound was mixed with 15 μL enzyme solution. Kinase reactions were initiated with the addition of 15 μL of substrates-containing solution. The assay conditions were as follows; 0.2 nM mTORC1, 10 μM ATP and 50 nM NHis-tagged 4E-BP1 in 20 mM Hepes, pH 7.2, 1 mM DTT, 50 mM NaCl, 10 mM MnCl2, 0.02 mg/mL BSA, 0.01% CHAPS, 50 mM β-glycerophosphate. Following an incubation of 120 minutes at ambient temperature, 20 μL of the reaction volume was transferred to a Ni-Chelate-coated 384-well plate. The binding step of the 4E-BP1 protein proceeded for 60 minutes, followed by washing 4 times each with 50 μL of Tris-buffered saline solution (TBS). Anti-phospho-4E-BP1 rabbit-IgG (20 μL, 1:5000) in 5% BSA-TBST (0.2% Tween-20 in TBS) was added and further incubated for 60 minutes. Incubation with a secondary HRP-tagged anti-IgG was similarly performed after washing off the primary antibody (4 washes of 50 μL). Following the final wash step with TBST, 20 μL of SuperSignal ELISA Femto (Pierce Biotechnology) was added and the luminescence measured using an EnVision plate reader.

IC50, 100 to 500 nM:
Cc1nc2cc(-c3ccc4c(c3)CN(c3nc(CN(C)C)nc(C)c3CC(C)C)CCO4)ccc2[nH]1 [Compound 23, N,N-dimethyl-1-{4-methyl-6-[7-(2-methyl-1H-benzimidazol-5-yl)-2,3-dihydro-1,4-benzoxazepin-4(5H)-yl]-5-(2-methylpropyl)pyrimidin-2-yl}methanamine]

IC50, 500 to 2500 nM:
Cc1nc2cc(-c3ccc4c(c3)CN(c3nc(CN(C)C)nc(C)c3Br)CCO4)ccc2[nH]1 [Compound 30, 1-{5-bromo-4-methyl-6-[7-(2-methyl-1H-benzimidazol-5-yl)-2,3-dihydro-1,4-benzoxazepin-4(5H)-yl]pyrimidin-2-yl}-N,N-dimethylmethanamine]
Cc1nc2cc(-c3ccc4c(c3)CN(c3nc(CN(C)C)nc(C)c3Cl)CCO4)ccc2[nH]1 [Compound 31, 1-{5-chloro-4-methyl-6-[7-(2-methyl-1H-benzimidazol-5-yl)-2,3-dihydro-1,4-benzoxazepin-4(5H)-yl]pyrimidin-2-yl}-N,N-dimethylmethanamine]
CCCc1c(C)nc(CN(C)C)nc1N1CCOc2ccc(-c3ccc4nc(C)[nH]c4c3)cc2C1 [Compound 32, N,N-dimethyl-1-{4-methyl-6-[7-(2-methyl-1H-benzimidazol-6-yl)-2,3-dihydro-1,4-benzoxazepin-4(5H)-yl]-5-propylpyrimidin-2-yl}methanamine]
COc1ccc2c(N3CCOc4ccc(-c5ccc6[nH]cnc6c5)cc4C3)nc(CN(C)C)nc2c1 [Compound 37, 1-{4-[7-(1H-benzimidazol-5-yl)-2,3-dihydro-1,4-benzoxazepin-4(5H)-yl]-7-(methyloxy)quinazolin-2-yl}-N,N-dimethylmethanamine]
COc1ccc2c(N3CCOc4ccc(-c5ccc6[nH]c(C)nc6c5)cc4C3)nc(CN(C)C)nc2c1 [Compound 38, N,N-dimethyl-1-{4-[7-(2-methyl-1H-benzimidazol-5-yl)-2,3-dihydro-1,4-benzoxazepin-4(5H)-yl]-7-(methyloxy)quinazolin-2-yl}methanamine]

IC50, ≤ 100 nM:
Cc1nc2cc(-c3ccc4c(c3)CN(c3nc(C(C)N)nc5c3CC(C)(C)CC5)CCO4)ccc2[nH]1 (stereo not shown) [Compound 24, 1-{6,6-dimethyl-4-[7-(2-methyl-1H-benzimidazol-5-yl)-2,3-dihydro-1,4-benzoxazepin-4(5H)-yl]-5,6,7,8-tetrahydroquinazolin-2-yl}ethanamine]
Cc1nc2cc(-c3ccc4c(c3)CN(c3nc(CF)nc5c3CC(C)(C)CC5)CCO4)ccc2[nH]1 [Compound 25, 4-[2-(fluoromethyl)-6,6-dimethyl-5,6,7,8-tetrahydroquinazolin-4-yl]-7-(2-methyl-1H-benzimidazol-5-yl)-2,3,4,5-tetrahydro-1,4-benzoxazepine]
CC(=O)NCc1nc2c(c(N3CCOc4ccc(-c5ccc6[nH]c(C)nc6c5)cc4C3)n1)CC(C)(C)CC2 [Compound 26, N-({6,6-dimethyl-4-[7-(2-methyl-1H-benzimidazol-5-yl)-2,3-dihydro-1,4-benzoxazepin-4(5H)-yl]-5,6,7,8-tetrahydroquinazolin-2-yl}methyl)acetamide]
CC1(C)CCc2nc(N)nc(N3CCOc4ccc(-c5ccc6[nH]cnc6c5)cc4C3)c2C1 [Compound 27, 4-[7-(1H-benzimidazol-5-yl)-2,3-dihydro-1,4-benzoxazepin-4(5H)-yl]-6,6-dimethyl-5,6,7,8-tetrahydroquinazolin-2-amine]
Cc1nc2cc(-c3ccc4c(c3)CN(c3cc(N)ncc3C#N)CCO4)ccc2[nH]1 [Compound 28, 6-amino-4-[7-(2-methyl-1H-benzimidazol-5-yl)-2,3-dihydro-1,4-benzoxazepin-4(5H)-yl]pyridine-3-carbonitrile]
Cc1nc2cc(-c3ccc4c(c3)CN(c3nc(N)nc5c3CC(C)(C)CC5)CCO4)ccc2[nH]1 [Compound 29, 6,6-dimethyl-4-[7-(2-methyl-1H-benzimidazol-5-yl)-2,3-dihydro-1,4-benzoxazepin-4(5H)-yl]-5,6,7,8-tetrahydroquinazolin-2-amine]
C=CCc1c(C)nc(CN(C)C)nc1N1CCOc2ccc(-c3ccc4nc(C)[nH]c4c3)cc2C1 [Compound 33, N,N-dimethyl-1-{4-methyl-6-[7-(2-methyl-1H-benzimidazol-6-yl)-2,3-dihydro-1,4-benzoxazepin-4(5H)-yl]-5-prop-2-en-1-ylpyrimidin-2-yl}methanamine]
Cc1nc2cc(-c3ccc4c(c3)CN(c3nc(CNCCF)nc(C)c3C(C)C)CCO4)ccc2[nH]1 [Compound 34, 2-fluoro-N-({4-methyl-6-[7-(2-methyl-1H-benzimidazol-5-yl)-2,3-dihydro-1,4-benzoxazepin-4(5H)-yl]-5-(1-methylethyl)pyrimidin-2-yl}methyl)ethanamine]
C=CCc1c(C)nc(N)nc1N1CCOc2ccc(-c3ccc4nc(C)[nH]c4c3)cc2C1 [Compound 35, 4-methyl-6-[7-(2-methyl-1H-benzimidazol-5-yl)-2,3-dihydro-1,4-benzoxazepin-4(5H)-yl]-5-prop-2-en-1-ylpyrimidin-2-amine]
Cc1nc(N)nc(N2CCOc3ccc(-c4ccc5[nH]cnc5c4)cc3C2)c1Cc1ccc(F)cc1 [Compound 36, 4-[7-(1H-benzimidazol-5-yl)-2,3-dihydro-1,4-benzoxazepin-4(5H)-yl]-5-[(4-fluorophenyl)methyl]-6-methylpyrimidin-2-amine]
Cc1nc2cc(-c3ccc4c(c3)CN(c3nc(N)nc(C)c3Cc3ccc(F)cc3)CCO4)ccc2[nH]1 [Compound 39, 5-[(4-fluorophenyl)methyl]-4-methyl-6-[7-(2-methyl-1H-benzimidazol-5-yl)-2,3-dihydro-1,4-benzoxazepin-4(5H)-yl]pyrimidin-2-amine]
Cc1nc(N)nc(N2CCOc3ccc(-c4ccc5[nH]cnc5c4)cc3C2)c1C(C)C [Compound 40, 4-[7-(1H-benzimidazol-5-yl)-2,3-dihydro-1,4-benzoxazepin-4(5H)-yl]-6-methyl-5-(1-methylethyl)pyrimidin-2-amine]
Cc1nc2cc(-c3ccc4c(c3)CN(c3nc(N)nc(C)c3C(C)C)CCO4)ccc2[nH]1 [Compound 41, 4-methyl-6-[7-(2-methyl-1H-benzimidazol-5-yl)-2,3-dihydro-1,4-benzoxazepin-4(5H)-yl]-5-(1-methylethyl)pyrimidin-2-amine]
CCNc1nc2cc(-c3ccc4c(c3)CN(c3nc(N)nc(C)c3C(C)C)CCO4)ccc2[nH]1 [Compound 42, 5-{4-[2-amino-6-methyl-5-(1-methylethyl)pyrimidin-4-yl]-2,3,4,5-tetrahydro-1,4-benzoxazepin-7-yl}-N-ethyl-1H-benzimidazol-2-amine]
Cc1nc2ncc(-c3ccc4c(c3)CN(c3nc(N)nc5c3CC(C)(C)CC5)CCO4)cc2[nH]1 [Compound 44, 6,6-dimethyl-4-[7-(2-methyl-1H-imidazo[4,5-b]pyridin-6-yl)-2,3-dihydro-1,4-benzoxazepin-4(5H)-yl]-5,6,7,8-tetrahydroquinazolin-2-amine]
CC1(C)CCc2nc(N)nc(N3CCOc4ccc(-c5cnc6[nH]cnc6c5)cc4C3)c2C1 [Compound 45, 4-[7-(3H-imidazo[4,5-b]pyridin-6-yl)-2,3-dihydro-1,4-benzoxazepin-4(5H)-yl]-6,6-dimethyl-5,6,7,8-tetrahydroquinazolin-2-amine]
